Where a name gives a salt, the structure may show the parent alone.
System: bradykinin-induced writhing in mice
Experiment: Bradykinin-induced Writhing in Mice
Format: in vivo, mice (male CD-1)
Details: 30 mg/kg i.p., mice
Procedure: 2. Bradykinin-induced Writhing in Mice
Male CD-1 Charles River mice (14-19g), fasted overnight but having free access to water, in groups of 10 (control and treated) are given an intraperitoneal (j.p.) injection of 1 mg/kg of prostaglandin PGE2 in phosphate buffered saline (10 μl/g) and after 20 minutes each mouse receives an i.p. injection of bradykinin (0.5 mg/kg in saline). The treatment group of mice receive a test compound either orally 1 hour prior to administration of bradykinin or i.p. 2 minutes prior to administration of bradykinin. Test compounds are given in saline if soluble or as a suspension in 0.5% Tween 80. The percent inhibition of writhing obtained is calculated as follows: [formula] where C is the mean number of writhes in the control group and D is the mean number of writhes in the drag group. If 30% inhibition or higher is observed with the screening dose, the test compound is considered active. Several logarithmically spaced doses will be tested and the ED50 determined by regression methods with inverse prediction.

SMILES	Bradykinin-induced writhing, % inhibition at 30 mg/kg i.p. [%]
CCN(CC)C(=O)CCCCCN1CCC(NC(=O)c2cnc3c(OC)cccc3c2Nc2ccc(C(=O)NC3CCN(Cc4ccccc4)CC3)cc2)CC1 [Ex. 9, N-[1-[6-(Diethylamino)-6-oxohexyl]-4-piperidinyl]-8-methoxy-4-[[4-[[[1-(phenylmethyl)-4-piperidinyl]amino]carbonyl]-phenyl]amino]-3-quinolinecarboxamide]	46
CCCCN1CCC(NC(=O)c2cnc3c(OC)cccc3c2Nc2ccc(C(=O)NC3CCN(Cc4ccccc4)CC3)cc2)CC1 [Ex. 8, N-(1-Butyl-4-piperidinyl)-8-methoxy-4-[[4-[[[1-(phenylmethyl) -4-piperidinyl]amino]carbonyl]phenyl]amino]-3-quinolinecarboxamide]	32
COc1cccc2c(Nc3ccc(C(=O)NC4CCN(Cc5ccccc5)CC4)cc3)c(C(=O)NC3CCN(Cc4ccccc4)CC3)cnc12 [Ex. 3]	20

Same assay, conditions: 100 mg/kg p.o., mice

SMILES	Bradykinin-induced writhing, % inhibition [%]
CC(C(=O)O)c1cccc(C(=O)c2ccccc2)c1 (stereo not drawn) [Ketoprofen]	52

Same assay, conditions: 200 mg/kg p.o., mice

SMILES	Bradykinin-induced writhing, % inhibition [%]
CC(C)Cc1ccc(C(C)C(=O)O)cc1 (stereo not drawn) [Ibuprofen]	43

Same assay, conditions: 300 mg/kg p.o., mice

SMILES	Bradykinin-induced writhing, % inhibition [%]
CC(=O)Nc1ccc(O)cc1 [Acetaminophen]	20

Same assay, conditions: Mus musculus, po, read-out: Bradykinin-induced writhing, ED50

SMILES	ED50 [mg/kg]
CN1CC[C@]23c4c5ccc(O)c4O[C@H]2[C@@H](O)C=C[C@H]3[C@H]1C5 [Morphine]	4.5

Target: T1, BK2 receptor sites in guinea pig ileum (Cavia porcellus, UniProt O70526)
T1 construct: The tissue is cut into small pieces and homogenized in 20 volumes of homogenization buffer; from tissue; host or cells: guinea pig distal ileum, membrane homogenate (Hartley strain, male, adult; animals from Charles River)
T1 sequence (O70526 1-372): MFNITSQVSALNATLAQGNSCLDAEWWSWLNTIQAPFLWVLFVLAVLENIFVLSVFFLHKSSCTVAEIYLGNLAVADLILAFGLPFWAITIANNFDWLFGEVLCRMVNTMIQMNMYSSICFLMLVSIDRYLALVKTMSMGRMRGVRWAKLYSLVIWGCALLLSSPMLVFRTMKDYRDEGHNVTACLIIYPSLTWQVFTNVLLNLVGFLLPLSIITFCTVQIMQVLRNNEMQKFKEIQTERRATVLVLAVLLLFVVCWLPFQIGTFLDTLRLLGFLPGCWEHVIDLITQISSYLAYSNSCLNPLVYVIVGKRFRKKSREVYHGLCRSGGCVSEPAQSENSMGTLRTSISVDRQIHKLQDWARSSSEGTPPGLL
Experiment: Bradykinin Receptor Binding Assay (competition with 3H-bradykinin for BK2 receptor sites in guinea pig ileum)
Details: 80 pM 3H-BK, guinea pig ileum homogenate, 90 min, 25° C., pH 6.8; read-out: Bradykinin Binding in G.P. ileum, IC50
Procedure: 1. Bradykinin Receptor Binding Assay
The following procedure is used to identify compounds which compete specifically with triturated bradykinin (^3 H-BK) for BK2 receptor sites in guinea pig ileum.
The distal portion of adult, male guinea pig (Hartley strain, 350-500 g, Charles River) ileum is removed and placed in ice cold homogenization buffer [[…] N-tris (hydroxymethyl)methyl-2-aminoethane sulfonic acid (TES), 1 mM 1, 10-phenanthroline, adjusted to pH 6.8 with ammonium hydroxide].
The contents of the ileal lumen are rinsed out with cold homogenization buffer. The tissue is cut into small pieces and homogenized in 20 volumes of homogenization buffer 3 times of 10 seconds duration using a Brinkman Polytron homogenizer equipped with a PTA 10 TS generator at setting 5.
The homogenate is fillered through a surgical gauze sponge and centrifuged at 50,000 × g for 20 minutes at 4° C. The supernatant fluid is discarded and the homogenization and centrifugation procedures are repeated. After discarding the supernatant fluid, the final pellet is resuspended in 40 volumes of assay buffer (25 mM TES, pH 6.8, 1 mM 1,10-phenanthroline, 1 mM dithiothreitol, 2 μM captopril, 140 μg/ml bacitracin and 0.1% bovine serum albumin (BSA)). The homogenate is filtered once more through a surgical gauze sponge and kept on ice until used. The assay is performed using only polypropylene pipet tips and polypropylene test tubes. Each tube receives 100 μl of 800 pM ^3 H-BK, 100 μl of the test compound solution […] or vehicle (assay buffer), and 100 μl of 25 mg/ml tissue homogenate in a total volume of 1 ml. The final concentration of 3H-BK is 80 pM. The final tissue concentration is 2.5 mg/ml. Compounds are screened at 100 μM. Compounds which are not soluble in water are first solubilized in DMSO and then diluted 1:100 in the assay buffer. Addition of 100 μl of this sample to the assay will yield a final DMSO concentration of 0.1% which has been shown not to affect the binding assay. Nonspecific binding is determined in the presence of 1 μM unlabeled bradykinin. All determinmions are made in triplicate. Three 100 μl aliquots of the 800 pM 3H-BK working solution are added directly to scintillation vials to determine the total added radioactivity.
The tubes are incubated for 90 minutes at 25° C. while being gently agitated on an orbital shaker. Bound ligand is separated from free ligand, using Whatman GF/B glass fiber filters (pretreated with 0.1% aqueous polyethyleneimine made neutral with HCl). A Brandel receptor binding harvester is used. Assay tubes and glass fiber filters are rinsed three times with 3 ml of cold physiological saline.
The filter discs are transferred to 20 ml scintillation vials. Ten ml of aqueous sample LSC cocktail (Aquassure, New England Nuclear) is added to each vial. After capping, the vials are agitated for 5 minutes on an orbital shaker. The samples are counted for ten minutes in a refrigerated liquid scintillation counter to obtain the following values: Bt (total binding), Bns (non-specific binding) and Bx (total binding in the presence of the test compound). From these values, control specific binding (C=Bt -Bns), specific binding in the presence of the test compound (D=Bx -Bns), percent of control (D/C ×100) and percent inhibition (1-D/C)×100 are calculated.
If 50% inhibition is obtained at the screening concentration, the compound is considered active and a dilution series (typically 1:3 serial dilutions of the test compound) is tested in the binding assay. After calculation of the percent of control of each dilution, the values are analyzed and the IC50 with its 95% confidence limits is determined.

SMILES	IC50 [nM]
COc1cccc2c(Nc3ccc(C(=O)NC4CCN(Cc5ccccc5)CC4)cc3)c(C(=O)NC3CCN(CCc4ccccc4)CC3)cnc12 [Ex. 12, N-[1-(2-Phenylethyl)-4-piperidinyl]-8-methoxy-4-[[4-[[[1-(phenylmethyl)-4piperidinyl]amino]carbonyl]phenyl]amino]-3-quinolinecarboxamide]	670
COc1cccc2c(Nc3ccc(C(=O)NC4CCN(Cc5ccccc5)CC4)cc3)c(C(=O)NC3CCN(Cc4cccc(C(F)(F)F)c4)CC3)cnc12 [Ex. 16]	250
CCCCN1CCC(NC(=O)c2ccc(Nc3c(C(=O)NC4CCN(Cc5ccccc5)CC4)cnc4c(OC)cccc34)cc2)CC1 [Ex. 13, 4-[[4-[[(1-Butyl-4-piperidinyl)amino]carbonyl]phenyl]amino]-8-methoxy-N-[1-(phenylmethyl)-4-piperidinyl]-3-quinoinecarboxamide]	2900
COc1cccc2c(Nc3ccc(C(=O)NC4CCN(Cc5ccccc5)CC4)cc3)c(C(=O)NCCN(C)C)cnc12 [Ex. 4, N-[2-(Dimethylamino)ethyl]-8-methoxy-4-[[4-[[[1-(phenylmethyl) -4-piperidinyl]amino]carbonyl]phenyl]amino]-3-quinolinecarboxamide trifluoroacetate (1:4)]	2700
COc1cccc2c(Nc3ccc(C(=O)NC4CCN(Cc5ccccc5)CC4)cc3)c(C(=O)NC3CCN(Cc4ccc(C(C)(C)C)cc4)CC3)cnc12 [Ex. 1, N-[1-[4-(1,1-Dimethylethyl)phenyl]methyl-4-piperidinyl]-8-methoxy-4-[[4-[[[1-(phenylmethyl) -4-piperidinyl]amino]carbonyl]phenyl]amino]-3-quinolinecarboxamide]	430
CCN(CC)C(=O)CCCCCN1CCC(NC(=O)c2cnc3c(OC)cccc3c2Nc2ccc(C(=O)NC3CCN(Cc4ccccc4)CC3)cc2)CC1 [Ex. 9, N-[1-[6-(Diethylamino)-6-oxohexyl]-4-piperidinyl]-8-methoxy-4-[[4-[[[1-(phenylmethyl)-4-piperidinyl]amino]carbonyl]-phenyl]amino]-3-quinolinecarboxamide]	2600
COc1cccc2c(Nc3ccc(C(=O)NC4CCN(Cc5ccccc5)CC4)cc3)c(C(=O)N(C)C3CCN(C)CC3)cnc12 [Ex. 14]	1400
COc1cccc2c(Nc3ccc(C(=O)NC4CCN(Cc5ccccc5)CC4)cc3)c(C(=O)NC3CCN(Cc4cccc(Cl)c4)CC3)cnc12 [Ex. 2]	79
O=C(NC1CCN(Cc2ccccc2)CC1)c1ccc(Nc2c(C(=O)NC3CCN(Cc4ccccc4)CC3)cnc3cc(Cl)ccc23)cc1 [Ex. 17, 7-Chloro-N-[1-(phenylmethyl)-4-piperidinyl]-4-[[4-[[[1-(phenylmethyl)-4-piperidinyl]amino]carbonyl]phenyl]amino]-3-quinolinecarboxamide]	430
CCN(CCN(C)C)C(=O)c1cnc2c(OC)cccc2c1Nc1ccc(C(=O)NC2CCN(Cc3ccccc3)CC2)cc1 [Ex. 5, N-[2-(Dimethylamino)ethyl]-N-ethyl-8-methoxy-4-[[4-[[[1-(phenylmethyl)-4-piperidinyl]amino]carbonyl]phenyl]amino]-3-quinolinecarboxamide]	2900
COc1cccc(CN2CCC(NC(=O)c3cnc4c(OC)cccc4c3Nc3ccc(C(=O)NC4CCN(Cc5ccccc5)CC4)cc3)CC2)c1 [Ex. 15, N-[1-[(3-Methoxyphenyl)methyl]-4-piperidinyl]-8-methoxy-4-[[4-[[[1-(phenylmethyl)-4-piperidinyl]amino]carbonyl]phenyl]amino]-3-quinoline-carboxamide]	220
CCN(CC)C(=O)CCCCCN1CCC(N(Cc2ccc(Nc3c(C(=O)NC4CCN(Cc5ccccc5)CC4)cnc4c(OC)cccc34)cc2)C(=O)CCC2CCCC2)CC1 [Ex. 6]	1440
CCCCN1CCC(NC(=O)c2cnc3c(OC)cccc3c2Nc2ccc(C(=O)NC3CCN(Cc4ccccc4)CC3)cc2)CC1 [Ex. 8, N-(1-Butyl-4-piperidinyl)-8-methoxy-4-[[4-[[[1-(phenylmethyl) -4-piperidinyl]amino]carbonyl]phenyl]amino]-3-quinolinecarboxamide]	1200
COc1cccc2c(Nc3ccc(C(=O)NC4CCN(Cc5ccccc5)CC4)cc3)c(C(=O)NC3CCN(Cc4ccccc4)CC3)cnc12 [Ex. 3]	93
CCN(CC)C(=O)c1cccc(CN2CCC(NC(=O)c3cnc4c(OC)cccc4c3Nc3ccc(C(=O)NC4CCN(Cc5ccccc5)CC4)cc3)CC2)c1 [Ex. 11]	1600

Same assay, conditions: at 10 μM; 80 pM 3H-BK, guinea pig ileum homogenate; read-out: Bradykinin Binding in G.P. ileum, % inhibition at 10 μM

SMILES	inhibition at 10 µM [%]
CCCCN1CCC(N(Cc2ccc(Nc3c(C(=O)NC4CCN(Cc5ccccc5)CC4)cnc4c(OC)cccc34)cc2)C(=O)CCC)CC1 [Ex. 10]	42.8
CCCCN1CCC(NCc2ccc(Nc3c(C(=O)NC4CCN(Cc5ccccc5)CC4)cnc4c(OC)cccc34)cc2)CC1 [Ex. 7, 4-[[4-[[(1-Butyl-4-piperidinyl)amino]methyl]phenyl]amino]-8-methoxy-N-[1-(phenyimethyl)-4-piperidinyl]-3-qinolinecarboxamide]	50.5

— patent publication US5438064A, “Derivatives of 4-anilinoquinoline-3-carboxamide as analgesic agents” (American Home Products Corporation, priority 1991, dated 1995)
